# According to patent EP4800015A1, “AZABICYCLO DERIVATIVE AND PREPARATION METHOD THEREFOR, AND USE” (Zhejiang Hisun Pharmaceutical Co., Ltd., priority 2023, dated 2025):
# Target: T1, recombinant human WRN (Homo sapiens, UniProt Q14191)
# T1 construct: purchased BPS 101264
# Experiment: Inhibition of WRN enzyme activity (ATPase), ADP-Glo Kinase Assay
# Format: biochemical
# Details: WRN protein 5 nM, Flap 0.1 nM, ATP 30 µM
# Summary of the method: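 Recombinant human WRN (5 nM) was preincubated with compound (1000–0.004 nM) for 15 min at room temperature. Flap26 5'-flap DNA (0.1 nM) and 30 µM ATP were then added for 10 min in Tris pH 7.5, MgCl2, NaCl, BSA, Pluronic buffer. ADP was detected by ADP-Glo luminescence, and IC50 was obtained by nonlinear regression versus a 0.1% DMSO control.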
# T1 sequence (Q14191 whole entry): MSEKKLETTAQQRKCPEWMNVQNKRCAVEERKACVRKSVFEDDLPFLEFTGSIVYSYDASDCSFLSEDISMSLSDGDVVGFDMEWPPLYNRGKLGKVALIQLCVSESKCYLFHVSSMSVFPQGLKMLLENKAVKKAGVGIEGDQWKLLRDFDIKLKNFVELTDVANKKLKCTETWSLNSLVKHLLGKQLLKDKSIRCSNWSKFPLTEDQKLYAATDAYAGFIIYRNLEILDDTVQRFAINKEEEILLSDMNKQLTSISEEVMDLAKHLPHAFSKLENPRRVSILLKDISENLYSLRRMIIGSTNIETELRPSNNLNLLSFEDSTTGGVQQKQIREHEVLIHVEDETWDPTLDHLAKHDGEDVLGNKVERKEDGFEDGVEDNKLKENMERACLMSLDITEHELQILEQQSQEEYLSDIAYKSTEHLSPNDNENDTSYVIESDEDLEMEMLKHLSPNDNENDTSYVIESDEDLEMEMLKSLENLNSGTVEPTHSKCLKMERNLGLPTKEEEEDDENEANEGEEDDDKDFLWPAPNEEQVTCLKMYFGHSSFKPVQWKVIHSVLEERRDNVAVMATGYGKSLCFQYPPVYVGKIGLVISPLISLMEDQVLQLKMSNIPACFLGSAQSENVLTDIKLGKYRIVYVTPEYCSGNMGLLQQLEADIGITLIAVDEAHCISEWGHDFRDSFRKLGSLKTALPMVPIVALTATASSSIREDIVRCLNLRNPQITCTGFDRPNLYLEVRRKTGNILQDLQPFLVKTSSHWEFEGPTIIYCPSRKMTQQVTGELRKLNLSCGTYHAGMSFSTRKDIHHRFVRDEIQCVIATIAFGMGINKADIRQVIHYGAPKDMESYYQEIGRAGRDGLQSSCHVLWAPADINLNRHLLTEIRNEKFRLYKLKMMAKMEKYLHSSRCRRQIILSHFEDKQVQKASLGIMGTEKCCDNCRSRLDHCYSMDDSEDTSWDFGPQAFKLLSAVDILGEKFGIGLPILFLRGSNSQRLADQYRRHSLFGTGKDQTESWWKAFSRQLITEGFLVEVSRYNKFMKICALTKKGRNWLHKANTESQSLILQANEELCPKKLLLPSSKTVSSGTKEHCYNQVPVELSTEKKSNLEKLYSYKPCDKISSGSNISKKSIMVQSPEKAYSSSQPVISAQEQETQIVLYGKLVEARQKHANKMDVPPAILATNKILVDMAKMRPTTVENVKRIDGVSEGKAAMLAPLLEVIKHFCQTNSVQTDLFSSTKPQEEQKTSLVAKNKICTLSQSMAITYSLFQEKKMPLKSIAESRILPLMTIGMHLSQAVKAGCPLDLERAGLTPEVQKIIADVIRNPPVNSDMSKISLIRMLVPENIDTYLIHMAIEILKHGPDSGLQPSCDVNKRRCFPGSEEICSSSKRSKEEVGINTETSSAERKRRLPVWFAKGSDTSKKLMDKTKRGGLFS
row,SMILES,IC50
1,"CCc1c(N2CCN(C(=O)c3ncnc(C)c3O)CC2)c(=O)n2nc(-c3ccc4cnn(C)c4c3)nc2n1CC(=O)Nc1ccc(C(F)(F)F)cc1Cl [Example 139, N-(2-chloro-4-(trifluoromethyl)phenyl)-2-(5-ethyl-6-(4-(5-hydroxy-6-methylpyrimidine-4-carbonyl)piperazin-1-yl)-2-(1-methyl-1H-indazol-6-yl)-7-oxo-[1,2,4]triazolo[1,5-a]pyrimidin-4(7H)-yl) acetamide]",1 to 100 nM

# Same assay, conditions: WRN protein 5 nM, Flap 0.1 nM, ATP 30 µM; read-out: IC50
row,IC50,SMILES
1,1 to 100 nM,"CCO/C=C/c1nc2n(CC(=O)Nc3ccc(C(F)(F)F)cc3Cl)c(CC)c(N3CCN(C(=O)c4ncnc(C)c4O)CC3)c(=O)n2n1 [Example 193, (E)-N-(2-chloro-4-(trifluoromethyl)phenyl)-2-(2-(2-ethoxyvinyl)-5-ethyl-6-(4-(5-hydroxy-6-methylpyrimidine-4-carbonyl)piperazin-1-yl)-7-oxo-[1,2,4]triazolo[1,5-a]pyrimidin-4(7H)-yl)acetamide]"
2,1 to 100 nM,"CCc1c(N2CCN(C(=O)c3ncnc(C)c3O)CC2)c(=O)n2nc(N3CC4(CCOCC4)C3)nc2n1CC(=O)Nc1ccc(C(F)(F)F)cc1Cl [Example 8, N-(2-chloro-4-(trifluoromethyl)phenyl)-2-(5-ethyl-6-(4-(5-hydroxy-6-methylpyrimidine-4-carbonyl)piperazin-1-yl)-7-oxo-2-(7-oxa-2-azaspiro[3.5]nonan-2-yl)-[1,2,4]triazolo[1,5-a]pyrimidin-4(7 H)-yl)acetamide]"
3,1 to 100 nM,"CCc1c(N2CCN(C(=O)c3ncnc(C)c3O)CC2)c(=O)n2nc(-c3ccn4ccnc4c3)nc2n1CC(=O)Nc1ccc(C(F)(F)F)cc1Cl [Example 136, N-(2-chloro-4-(trifluoromethyl)phenyl)-2-(5-ethyl-6-(4-(5-hydroxy-6-methylpyrimidine-4-carbonyl)piperazin-1-yl)-2-(imidazo[1,2-a]pyridin-7-yl)-7-oxo-[1,2,4]triazolo[1,5-a]pyrimidin-4(7H)-yl)acetamide]"
4,< 1 nM,"CCc1c(N2CCN(C(=O)c3ncccc3O)CC2)c(=O)n2nc(C3=CC4CC4C3)nc2n1CC(=O)Nc1ccc(C(F)(F)F)cc1Cl (centres unmarked) [Example 38, 2-(2-(bicyclo[3.1.0]hex-2-en-3-yl)-5-ethyl-6-(4-(3-hydroxypicolinoyl)piperazin-1-yl)-7-oxo-[1,2, 4]triazolo[1,5-a]pyrimidin-4(7H)-yl)-N-(2-chloro-4-(trifluoromethyl)phenyl)acetamide]"
5,1 to 100 nM,"CCc1c(N2CCN(C(=O)c3ccncc3O)CC2)c(=O)n2nc(C3=CCCCCC3)nc2n1CC(=O)Nc1ccc(C(C)(C)C)cc1 [Example 24, N-(4-(tert-butyl)phenyl)-2-(2-(cyclohept-1-en-1-yl)-5-ethyl-6-(4-(3-hydroxyisonicotinoyl)piperazin-1-yl)-7-oxo-[1,2,4]triazolo[1,5-a]pyrimidin-4(7H)-yl)acetamide]"
6,1 to 100 nM,"CCc1c(N2CCN(C(=O)c3ncnc(C)c3O)CC2)c(=O)n2nc(C3=C[C@@H]4C[C@@H]4C3)nc2n1CC(=O)Nc1ccc(S(F)(F)(F)(F)F)cc1 [Example 195, 2-(2-((1R,5R)-bicyclo[3.1.0]hex-2-en-3-yl)-5-ethyl-6-(4-(5-hydroxy-6-methylpyrimidine-4-carbonyl)piperazin-1-yl)-7-oxo-[1,2,4]triazolo[1,5-a]pyrimidin-4(7H)-yl)-N-(4-(pentafluoro-λ6-sulfaneyl)phenyl)acetamide]"
7,1 to 100 nM,"CCc1c(N2CCN(C(=O)c3ncccc3O)CC2)c(=O)n2nc(-c3ccc4ccoc4c3)nc2n1CC(=O)Nc1ccc(S(F)(F)(F)(F)F)cc1 [Example 78, 2-(2-(benzofuran-6-yl)-5-ethyl-6-(4-(3-hydroxypicolinoyl)piperazin-1-yl)-7-oxo-[1,2,4]triazolo[1 ,5-a]pyrimidin-4(7H)-yl)-N-(4-(pentafluoro-λ^6-sulfaneyl)phenyl)acetamide]"
8,1 to 100 nM,"CCc1c(N2CCN(C(=O)c3ncnc(C)c3O)CC2)c(=O)n2nc(N3CCCOCC3)nc2n1CC(=O)Nc1ccc(C(F)(F)F)cc1Cl [Example 1, N-(2-chloro-4-(trifluoromethyl)phenyl)-2-(5-ethyl-6-(4-(5-hydroxy-6-methylpyrimidine-4-carbonyl)piperazin-1-yl)-2-(1,4-oxazepan-4-yl)-7-oxo-[1,2,4]triazolo[1,5-a]pyrimidin-4(7H)-yl)acetamide]"
9,1 to 100 nM,"CCc1c(N2CCN(C(=O)c3ncnc(C)c3O)CC2)c(=O)n2nc(-c3ccc4ccoc4c3)nc2n1CC(=O)Nc1ccc(SC(F)(F)F)cc1 [Example 90, 2-(2-(benzofuran-6-yl)-5-ethyl-6-(4-(5-hydroxy-6-methylpyrimidine-4-carbonyl)piperazin-1-yl)-7-oxo-[1,2,4]triazolo[1,5-a]pyrimidin-4(7H)-yl)-N-(4-((trifluoromethyl)thio)phenyl)acetamide]"
10,1 to 100 nM,"CCc1c(N2CCN(C(=O)c3ncccc3O)CC2)c(=O)n2nc(-c3cc4ccccc4o3)nc2n1CC(=O)Nc1ccc(C(F)(F)F)cc1Cl [Example 75, 2-(2-(benzofuran-2-yl)-5-ethyl-6-(4-(3-hydroxypicolinoyl)piperazin-1-yl)-7-oxo-[1,2,4]triazolo[1 ,5-a]pyrimidin-4(7H)-yl)-N-(2-chloro-4-(trifluoromethyl)phenyl)acetamide]"
11,1 to 100 nM,"CCc1c(N2CCN(C(=O)c3ncnc(C)c3O)CC2)c(=O)n2nc(C3=CCCCCC3)nc2n1CC(=O)Nc1ccc(C(C)(C)C)cc1 [Example 26, N-(4-(tert-Butyl)phenyl)-2-(2-(cyclohept-1-en-1-yl)-5-ethyl-6-(4-(5-hydroxy-6-methylpyrimidine-4-carbonyl)piperazin-1-yl)-7-oxo-[1,2,4]triazolo[1,5-a]pyrimidin-4(7H)-yl)acetamide]"
12,1 to 100 nM,"CCc1c(N2CCN(C(=O)c3ncnc(C)c3O)CC2)c(=O)n2nc(-c3ccc4c(c3)CC(=O)N4)nc2n1CC(=O)Nc1ccc(C(F)(F)F)cc1Cl [Example 141, N-(2-chloro-4-(trifluoromethyl)phenyl)-2-(5-ethyl-6-(4-(5-hydroxy-6-methylpyrimidine-4-carbonyl)piperazin-1-yl)-7-oxo-2-(2-oxoindolin-5-yl)-[1,2,4]triazolo[1,5-a]pyrimidin-4(7H)-yl)acetamide]"
13,1 to 100 nM,"CCc1c(N2CCN(C(=O)c3ncnc(C)c3O)CC2)c(=O)n2nc(-c3ccc4c(c3)CCO4)cc2n1CC(=O)Nc1ccc(C(F)(F)F)cc1Cl [Example 82, N-(2-chloro-4-(trifluoromethyl)phenyl)-2-(2-(2,3-dihydrobenzofuran-5-yl)-5-ethyl-6-(4-(5-hydroxy-6-methylpyrimidine-4-carbonyl)piperazin-1-yl)-7-oxopyrazolo[1,5-a]pyrimidin-4(7H)-yl)acet amide]"
14,1 to 100 nM,"CCc1c(N2CCN(C(=O)c3ncnc(C)c3O)CC2)c(=O)n2nc(C(C)=C3CCC3)nc2n1CC(=O)Nc1ccc(S(F)(F)(F)(F)F)cc1 [Example 61, 2-(2-(1-cyclobutylideneethyl)-5-ethyl-6-(4-(5-hydroxy-6-methylpyrimidine-4-carbonyl)piperazin-1-yl)-7-oxo-[1,2,4]triazolo[1,5-a]pyrimidin-4(7H)-yl)-N-(4-(pentafluoro-λ^6-sulfaneyl)phenyl)ace tamide]"
15,1 to 100 nM,"CCc1c(N2CCN(C(=O)c3ncnc(C)c3O)CC2)c(=O)n2nc(/C=C/C(=O)N(C)C)nc2n1CC(=O)Nc1ccc(C(F)(F)F)cc1Cl [Example 182, (E)-3-(4-(2-((2-chloro-4-(trifluoromethyl)phenyl)amino)-2-oxoethyl)-5-ethyl-6-(4-(5-hydroxy-6-methylpyrimidine-4-carbonyl)piperazin-1-yl)-7-oxo-4,7-dihydro-[1,2,4]triazolo[1,5-a]pyrimidin-2-yl)-N,N-dimethylacrylamide]"
16,1 to 100 nM,"CCc1c(N2CCN(C(=O)c3ncnc(C)c3O)CC2)c(=O)n2nc(C3=CC4CN(C(C)=O)CC4C3)nc2n1CC(=O)Nc1ccc(C(F)(F)F)cc1Cl (centres unmarked) [Example 145, 2-(2-(2-Acetyl-1,2,3,3a,4,6a-hexahydrocyclopenta[c]pyrrol-5-yl)-5-ethyl-6-(4-(5-hydroxy-6-methylpyrimidine-4-carbonyl)piperazin-1-yl)-7-oxo-[1,2,4]triazolo[1,5-a]pyrimidin-4(7H)-yl)-N-(2-chloro-4-(trifluoromethyl)phenyl)acetamide]"
17,1 to 100 nM,"CCc1c(N2CCN(C(=O)c3ncnc(C)c3O)CC2)c(=O)n2nc(-c3ccc4c(c3)OCC4)nc2n1CC(=O)Nc1ccc(S(F)(F)(F)(F)F)cc1 [Example 58, 2-(2-(2,3-dihydrobenzofuran-6-yl)-5-ethyl-6-(4-(5-hydroxy-6-methylpyrimidine-4-carbonyl)piperazin-1-yl)-7-oxo-[1,2,4]triazolo[1,5-a]pyrimidin-4(7H)-yl)-N-(4-(pentafluoro-λ^6-sulfaneyl)phenyl)acetamide]"
18,1 to 100 nM,"CCc1c(C2CCN(C(=O)c3ncnc(C)c3O)CC2)c(=O)n2nc(C3=CCCCCC3)nc2n1CC(=O)Nc1ccc(S(F)(F)(F)(F)F)cc1 [Example 92, 2-(2-(cyclohept-1-en-1-yl)-5-ethyl-6-(1-(5-hydroxy-6-methylpyrimidine-4-carbonyl)piperidin-4-yl)-7-oxo-[1,2,4]triazolo[1,5-a]pyrimidin-4(7H)-yl)-N-(4-(pentafluoro-λ^6-sulfaneyl)phenyl)acetamide]"
19,1 to 100 nM,"CCc1c(N2CCN(C(=O)c3ncnc(C)c3O)CC2)c(=O)n2nc(C3=CC4CCC3C4)nc2n1CC(=O)Nc1ccc(C(F)(F)F)cc1Cl (centres unmarked) [Example 23, 2-(2-(bicyclo[2.2.1]hept-2-en-2-yl)-5-ethyl-6-(4-(5-hydroxy-6-methylpyrimidine-4-carbonyl)piperazin-1-yl)-7-oxo-[1,2,4]triazolo[1,5-a]pyrimidin-4(7H)-yl)-N-(2-chloro-4-(trifluoromethyl)phenyl)acetamide]"
